Experimental data from the kinase profiling compilation of Christmann-Franck et al. (2016).

Legend:
Test in all cases: KINOMEscan competition binding
Conditions in all cases: compound 10.0 µM
[1] = molecular target: LATS2 (human) (UniProt Q9NRM7)
[2] = molecular target: FGFR3 (human) (UniProt P22607)
[3] = molecular target: RPS6KA5 KD2 (human) (UniProt O75582)
[4] = molecular target: BRSK2 (human) (UniProt Q8IWQ3)
[5] = molecular target: CDK7 (human) (UniProt P50613)
[6] = molecular target: STK33 (human) (UniProt Q9BYT3)
[7] = molecular target: PRKCE (human) (UniProt Q02156)
[8] = molecular target: PRKD3 (human) (UniProt O94806)
[9] = molecular target: MUSK (human) (UniProt O15146)
[10] = molecular target: RPS6KA1 KD2 (human) (UniProt Q15418)
[11] = molecular target: SRPK2 (human) (UniProt P78362)
[12] = molecular target: BMPR1B (human) (UniProt O00238)
[13] = molecular target: MLTK (human) (UniProt Q9NYL2)
[14] = molecular target: TIE1 (human) (UniProt P35590)
[15] = molecular target: MAP4K3 (human) (UniProt Q8IVH8)
[16] = molecular target: AAK1 (human) (UniProt Q2M2I8)
[17] = molecular target: FRK (human) (UniProt P42685)
[18] = molecular target: CDC42BPG (human) (UniProt Q6DT37)
[19] = molecular target: CIT (human) (UniProt O14578)
[20] = molecular target: BMP2K (human) (UniProt Q9NSY1)
[21] = molecular target: BLK (human) (UniProt P51451)
[22] = molecular target: PRKAA1 (human) (UniProt Q13131)
[23] = molecular target: CDK2 (human) (UniProt P24941)
[24] = molecular target: LCK (human) (UniProt P06239)
[25] = molecular target: MAPK8 (human) (UniProt P45983)
[26] = molecular target: STK24 (human) (UniProt Q9Y6E0)
[27] = molecular target: MAPKAPK2 (human) (UniProt P49137)
[28] = molecular target: ACVR2B (human) (UniProt Q13705)
[29] = molecular target: DCLK3 (human) (UniProt Q9C098)
[30] = molecular target: CAMK1G (human) (UniProt Q96NX5)
[31] = molecular target: PRKX (human) (UniProt P51817)
[32] = molecular target: WEE2 (human) (UniProt P0C1S8)
[33] = molecular target: ITK (human) (UniProt Q08881)
[34] = molecular target: TYRO3 (human) (UniProt Q06418)
[35] = molecular target: TNK2 (human) (UniProt Q07912)
[36] = molecular target: RPS6KA4 KD2 (human) (UniProt O75676)
[37] = molecular target: CLK4 (human) (UniProt Q9HAZ1)
[38] = molecular target: MAPK3 (human) (UniProt P27361)
[39] = molecular target: CDK16 (human) (UniProt Q00536)
[40] = molecular target: MINK1 (human) (UniProt Q8N4C8)
[41] = molecular target: PRKCD (human) (UniProt Q05655)
[42] = molecular target: PRKD1 (human) (UniProt Q15139)

Chain of RPS6KA4 KD2 (human) (O75676 whole entry, looked up): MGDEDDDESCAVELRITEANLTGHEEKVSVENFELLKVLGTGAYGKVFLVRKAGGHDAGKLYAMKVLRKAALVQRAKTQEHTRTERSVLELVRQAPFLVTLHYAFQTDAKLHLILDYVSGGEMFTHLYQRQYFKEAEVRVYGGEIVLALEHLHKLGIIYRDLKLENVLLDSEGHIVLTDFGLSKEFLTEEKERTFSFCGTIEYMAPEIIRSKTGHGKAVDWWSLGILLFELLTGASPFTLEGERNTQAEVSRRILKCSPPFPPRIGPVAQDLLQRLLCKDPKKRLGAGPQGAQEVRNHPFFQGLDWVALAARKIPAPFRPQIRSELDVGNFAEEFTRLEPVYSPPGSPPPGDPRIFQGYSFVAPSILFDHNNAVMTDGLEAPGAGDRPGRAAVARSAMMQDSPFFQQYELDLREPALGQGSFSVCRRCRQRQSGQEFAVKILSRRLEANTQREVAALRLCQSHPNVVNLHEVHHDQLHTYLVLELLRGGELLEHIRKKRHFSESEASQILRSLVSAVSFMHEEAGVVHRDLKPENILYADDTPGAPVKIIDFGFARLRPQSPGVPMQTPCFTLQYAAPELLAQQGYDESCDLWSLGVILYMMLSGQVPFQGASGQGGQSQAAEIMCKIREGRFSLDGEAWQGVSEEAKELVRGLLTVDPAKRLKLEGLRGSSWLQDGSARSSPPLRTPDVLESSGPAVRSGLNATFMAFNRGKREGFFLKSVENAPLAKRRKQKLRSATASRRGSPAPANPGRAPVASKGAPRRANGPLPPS
Chain of RPS6KA1 KD2 (human) (Q15418 whole entry, looked up): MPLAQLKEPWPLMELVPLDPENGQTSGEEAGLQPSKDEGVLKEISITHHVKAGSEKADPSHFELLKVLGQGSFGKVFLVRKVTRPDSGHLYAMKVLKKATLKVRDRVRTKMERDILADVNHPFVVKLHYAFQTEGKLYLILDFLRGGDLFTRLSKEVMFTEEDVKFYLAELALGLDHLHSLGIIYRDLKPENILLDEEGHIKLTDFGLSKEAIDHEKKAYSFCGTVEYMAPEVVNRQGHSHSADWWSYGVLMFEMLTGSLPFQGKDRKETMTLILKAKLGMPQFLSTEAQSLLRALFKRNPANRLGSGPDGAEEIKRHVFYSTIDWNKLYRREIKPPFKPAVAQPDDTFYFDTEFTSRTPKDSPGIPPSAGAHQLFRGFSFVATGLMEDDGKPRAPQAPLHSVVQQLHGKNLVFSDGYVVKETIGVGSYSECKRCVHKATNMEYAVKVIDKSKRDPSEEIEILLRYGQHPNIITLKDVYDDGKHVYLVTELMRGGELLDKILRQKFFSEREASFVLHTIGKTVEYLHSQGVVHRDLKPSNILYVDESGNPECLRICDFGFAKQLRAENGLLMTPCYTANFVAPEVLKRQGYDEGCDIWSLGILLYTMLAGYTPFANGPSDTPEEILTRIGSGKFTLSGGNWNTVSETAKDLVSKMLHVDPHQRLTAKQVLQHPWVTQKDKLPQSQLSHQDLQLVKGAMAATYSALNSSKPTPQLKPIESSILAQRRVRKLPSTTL
Chain of CAMK1G (human) (Q96NX5 whole entry, looked up): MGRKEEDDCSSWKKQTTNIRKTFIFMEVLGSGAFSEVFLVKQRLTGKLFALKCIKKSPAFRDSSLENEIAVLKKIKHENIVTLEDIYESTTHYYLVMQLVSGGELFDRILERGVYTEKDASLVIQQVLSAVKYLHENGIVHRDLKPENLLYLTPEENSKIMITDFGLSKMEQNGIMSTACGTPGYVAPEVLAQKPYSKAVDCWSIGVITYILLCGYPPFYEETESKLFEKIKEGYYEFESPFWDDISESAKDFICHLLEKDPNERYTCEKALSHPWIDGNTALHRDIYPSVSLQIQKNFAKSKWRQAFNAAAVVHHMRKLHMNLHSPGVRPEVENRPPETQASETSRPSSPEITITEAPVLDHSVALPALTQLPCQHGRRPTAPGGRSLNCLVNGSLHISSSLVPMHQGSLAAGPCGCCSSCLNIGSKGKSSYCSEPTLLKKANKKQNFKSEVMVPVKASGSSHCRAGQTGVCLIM
Chain of BMP2K (human) (Q9NSY1 whole entry, looked up): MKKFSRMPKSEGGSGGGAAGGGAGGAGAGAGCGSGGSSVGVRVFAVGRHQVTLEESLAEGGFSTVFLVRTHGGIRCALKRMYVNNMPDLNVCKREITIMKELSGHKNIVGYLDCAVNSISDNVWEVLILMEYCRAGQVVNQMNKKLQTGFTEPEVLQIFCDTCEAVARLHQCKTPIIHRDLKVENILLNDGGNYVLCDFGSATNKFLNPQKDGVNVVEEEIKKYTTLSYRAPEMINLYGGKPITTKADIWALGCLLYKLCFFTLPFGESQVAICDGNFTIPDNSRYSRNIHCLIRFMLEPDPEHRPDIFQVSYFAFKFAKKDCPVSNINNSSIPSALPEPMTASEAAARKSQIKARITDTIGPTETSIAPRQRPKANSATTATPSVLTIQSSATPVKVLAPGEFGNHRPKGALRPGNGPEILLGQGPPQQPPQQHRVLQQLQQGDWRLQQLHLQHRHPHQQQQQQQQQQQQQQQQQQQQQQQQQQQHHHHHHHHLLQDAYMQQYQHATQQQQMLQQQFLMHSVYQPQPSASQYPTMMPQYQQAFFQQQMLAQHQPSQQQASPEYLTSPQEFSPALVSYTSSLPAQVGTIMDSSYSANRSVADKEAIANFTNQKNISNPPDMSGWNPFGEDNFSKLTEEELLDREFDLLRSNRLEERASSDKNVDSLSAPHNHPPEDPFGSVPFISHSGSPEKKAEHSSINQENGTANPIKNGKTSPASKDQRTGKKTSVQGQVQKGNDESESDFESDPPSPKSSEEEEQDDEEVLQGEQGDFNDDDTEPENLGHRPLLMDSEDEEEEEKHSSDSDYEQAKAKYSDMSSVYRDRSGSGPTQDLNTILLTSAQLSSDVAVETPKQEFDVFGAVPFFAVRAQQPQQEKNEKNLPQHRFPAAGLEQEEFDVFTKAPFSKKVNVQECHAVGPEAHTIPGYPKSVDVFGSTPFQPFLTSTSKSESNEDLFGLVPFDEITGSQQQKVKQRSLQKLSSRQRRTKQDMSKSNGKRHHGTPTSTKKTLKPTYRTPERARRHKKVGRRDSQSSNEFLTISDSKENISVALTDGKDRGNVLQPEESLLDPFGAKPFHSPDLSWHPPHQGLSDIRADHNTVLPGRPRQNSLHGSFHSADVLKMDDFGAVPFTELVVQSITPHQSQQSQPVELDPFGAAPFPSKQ
Chain of PRKAA1 (human) (Q13131 whole entry, looked up): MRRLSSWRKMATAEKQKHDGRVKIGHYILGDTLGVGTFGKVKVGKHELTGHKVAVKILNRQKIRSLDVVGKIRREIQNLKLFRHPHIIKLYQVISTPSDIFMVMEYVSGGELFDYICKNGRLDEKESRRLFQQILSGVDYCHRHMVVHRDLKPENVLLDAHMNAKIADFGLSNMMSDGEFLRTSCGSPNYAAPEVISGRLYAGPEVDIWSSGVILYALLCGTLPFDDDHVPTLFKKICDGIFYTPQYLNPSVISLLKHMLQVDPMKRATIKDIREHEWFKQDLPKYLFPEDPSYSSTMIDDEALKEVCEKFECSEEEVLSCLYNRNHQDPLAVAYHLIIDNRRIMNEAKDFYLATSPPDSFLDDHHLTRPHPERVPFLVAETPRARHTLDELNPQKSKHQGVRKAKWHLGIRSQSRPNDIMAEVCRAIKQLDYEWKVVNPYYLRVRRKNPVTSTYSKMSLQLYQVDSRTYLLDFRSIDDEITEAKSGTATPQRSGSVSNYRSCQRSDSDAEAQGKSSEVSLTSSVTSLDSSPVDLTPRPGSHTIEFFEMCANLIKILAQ
Chain of MLTK (human) (Q9NYL2 whole entry, looked up): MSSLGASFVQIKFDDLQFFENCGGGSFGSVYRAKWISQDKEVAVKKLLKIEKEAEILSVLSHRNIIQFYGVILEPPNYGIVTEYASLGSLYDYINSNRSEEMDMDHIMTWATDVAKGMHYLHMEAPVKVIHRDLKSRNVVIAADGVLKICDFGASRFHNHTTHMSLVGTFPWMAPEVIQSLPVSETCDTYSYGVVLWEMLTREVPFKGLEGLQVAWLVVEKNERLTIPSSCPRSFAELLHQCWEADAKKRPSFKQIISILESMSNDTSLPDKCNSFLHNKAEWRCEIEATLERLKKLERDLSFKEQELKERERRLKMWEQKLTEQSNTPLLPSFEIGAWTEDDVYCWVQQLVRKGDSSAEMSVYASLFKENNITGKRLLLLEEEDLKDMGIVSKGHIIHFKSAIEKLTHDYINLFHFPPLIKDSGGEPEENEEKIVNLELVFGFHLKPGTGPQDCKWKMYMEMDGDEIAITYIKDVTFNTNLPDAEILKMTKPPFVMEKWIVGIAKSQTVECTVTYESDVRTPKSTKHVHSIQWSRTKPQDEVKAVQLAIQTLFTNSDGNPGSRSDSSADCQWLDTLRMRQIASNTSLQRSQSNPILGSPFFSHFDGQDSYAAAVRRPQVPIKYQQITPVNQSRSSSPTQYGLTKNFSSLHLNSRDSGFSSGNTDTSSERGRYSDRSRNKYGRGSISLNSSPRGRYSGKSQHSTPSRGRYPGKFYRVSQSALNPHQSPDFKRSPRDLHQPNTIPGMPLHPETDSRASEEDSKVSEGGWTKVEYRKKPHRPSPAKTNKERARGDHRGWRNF
Chain of BLK (human) (P51451 whole entry, looked up): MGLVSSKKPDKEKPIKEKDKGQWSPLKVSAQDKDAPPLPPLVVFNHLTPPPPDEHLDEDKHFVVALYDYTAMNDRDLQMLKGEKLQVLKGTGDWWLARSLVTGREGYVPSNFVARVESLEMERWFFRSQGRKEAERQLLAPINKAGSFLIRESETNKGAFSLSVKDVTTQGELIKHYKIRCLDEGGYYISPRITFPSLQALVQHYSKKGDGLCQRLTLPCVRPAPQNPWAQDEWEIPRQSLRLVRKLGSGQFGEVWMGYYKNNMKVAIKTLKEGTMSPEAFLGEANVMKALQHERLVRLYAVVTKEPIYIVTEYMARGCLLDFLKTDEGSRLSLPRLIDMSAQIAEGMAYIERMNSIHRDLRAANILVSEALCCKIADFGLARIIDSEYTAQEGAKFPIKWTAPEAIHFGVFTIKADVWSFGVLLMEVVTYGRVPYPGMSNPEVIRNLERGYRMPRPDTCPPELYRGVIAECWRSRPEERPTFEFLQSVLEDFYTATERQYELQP

Compound: CN1C(=O)c2ccccc2N(C)c2nc(Nc3ccc(N4CCC(O)CC4)cc3)ncc21
- kinase still bound, per cent of control [1]: 100%
- kinase still bound, per cent of control [2]: 62%
- kinase still bound, per cent of control [3]: 100%
- kinase still bound, per cent of control [4]: 48%
- kinase still bound, per cent of control [5]: 60%
- kinase still bound, per cent of control [6]: 75%
- kinase still bound, per cent of control [7]: 99%
- kinase still bound, per cent of control [8]: 69%
- kinase still bound, per cent of control [9]: 100%
- kinase still bound, per cent of control [10]: 45%
- kinase still bound, per cent of control [11]: 100%
- kinase still bound, per cent of control [12]: 13%
- kinase still bound, per cent of control [13]: 100%
- kinase still bound, per cent of control [14]: 59%
- kinase still bound, per cent of control [15]: 45%
- kinase still bound, per cent of control [16]: 62%
- kinase still bound, per cent of control [17]: 70%
- kinase still bound, per cent of control [18]: 100%
- kinase still bound, per cent of control [19]: 95%
- kinase still bound, per cent of control [20]: 43%
- kinase still bound, per cent of control [21]: 12%
- kinase still bound, per cent of control [22]: 17%
- kinase still bound, per cent of control [23]: 91%
- kinase still bound, per cent of control [24]: 50%
- kinase still bound, per cent of control [25]: 100%
- kinase still bound, per cent of control [26]: 82%
- kinase still bound, per cent of control [27]: 100%
- kinase still bound, per cent of control [28]: 45%
- kinase still bound, per cent of control [29]: 68%
- kinase still bound, per cent of control [30]: 91%
- kinase still bound, per cent of control [31]: 93%
- kinase still bound, per cent of control [32]: 70%
- kinase still bound, per cent of control [33]: 96%
- kinase still bound, per cent of control [34]: 100%
- kinase still bound, per cent of control [35]: 29%
- kinase still bound, per cent of control [36]: 89%
- kinase still bound, per cent of control [37]: 100%
- kinase still bound, per cent of control [38]: 100%
- kinase still bound, per cent of control [39]: 100%
- kinase still bound, per cent of control [40]: 100%
- kinase still bound, per cent of control [41]: 100%
- kinase still bound, per cent of control [42]: 98%

Compound: CN1C(=O)c2ccccc2N(C)c2nc(NS(=O)(=O)c3ccc(N)cc3)ncc21
- kinase still bound, per cent of control [1]: 100%
- kinase still bound, per cent of control [2]: 100%
- kinase still bound, per cent of control [3]: 100%
- kinase still bound, per cent of control [4]: 100%
- kinase still bound, per cent of control [5]: 91%
- kinase still bound, per cent of control [6]: 100%
- kinase still bound, per cent of control [7]: 100%
- kinase still bound, per cent of control [8]: 100%
- kinase still bound, per cent of control [9]: 100%
- kinase still bound, per cent of control [10]: 100%
- kinase still bound, per cent of control [11]: 100%
- kinase still bound, per cent of control [12]: 100%
- kinase still bound, per cent of control [13]: 100%
- kinase still bound, per cent of control [14]: 100%
- kinase still bound, per cent of control [15]: 100%
- kinase still bound, per cent of control [16]: 100%
- kinase still bound, per cent of control [17]: 100%
- kinase still bound, per cent of control [18]: 100%
- kinase still bound, per cent of control [19]: 100%
- kinase still bound, per cent of control [20]: 100%
- kinase still bound, per cent of control [21]: 100%
- kinase still bound, per cent of control [22]: 100%
- kinase still bound, per cent of control [23]: 100%
- kinase still bound, per cent of control [24]: 100%
- kinase still bound, per cent of control [25]: 100%
- kinase still bound, per cent of control [26]: 100%
- kinase still bound, per cent of control [27]: 96%
- kinase still bound, per cent of control [28]: 100%
- kinase still bound, per cent of control [29]: 100%
- kinase still bound, per cent of control [30]: 100%
- kinase still bound, per cent of control [31]: 94%
- kinase still bound, per cent of control [32]: 100%
- kinase still bound, per cent of control [33]: 100%
- kinase still bound, per cent of control [34]: 100%
- kinase still bound, per cent of control [35]: 100%
- kinase still bound, per cent of control [36]: 100%
- kinase still bound, per cent of control [37]: 100%
- kinase still bound, per cent of control [38]: 100%
- kinase still bound, per cent of control [39]: 100%
- kinase still bound, per cent of control [40]: 100%
- kinase still bound, per cent of control [41]: 100%
- kinase still bound, per cent of control [42]: 100%
